Experiments:
Format in all cases: in vivo
[1] = system: Oryza sativa (ORYSA); conditions: crop plant compatibility, 80 g/ha, effect in comparison to untreated controls
Outline: (§1)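 One-leaf-stage crops (2–3 wk post-sowing, sandy loam, greenhouse) sprayed on green parts; 0.5% additive, 600 l/ha water. Rated by eye ~3 wk later, % vs untreated; suffixes a/b/c mark different dosages.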

[2] = system: Zea mays (ZEAMX); conditions: crop plant compatibility, 80 g/ha, effect vs untreated controls
Outline: as §1

[3] = system: Abutilon theophrasti (ABUTH); assay: Pre-emergence herbicidal action against ABUTH; conditions: Dosage column 320 g/ha (title prints 3200 g/ha); scored visually after about 3 weeks; 100% = plants have died
Outline: (§2)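 Herbicide applied to soil before seedling emergence, at 600 l/ha spray volume with 0.5% additive and rates up to 320 g/ha. Evaluation: visual percentage effect, about 3 weeks later, greenhouse-grown pots compared with untreated ones.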

[4] = system: Amaranthus retroflexus (AMARE); assay: Post-emergence herbicidal action against AMARE
Outline: (§3)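 Doses of 320 g/ha or lower, suffixes a, b and c marking different dosages, were applied post-emergence at the one-leaf stage in 600 l/ha water with 0.5% additive. Damage was assessed visually after about 3 weeks in the greenhouse.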

[5] = system: Setaria viridis (SETVI); assay: Pre-emergence herbicidal action against SETVI; conditions: dosage 320 g/ha
Outline: as §2

[6] = system: Setaria viridis (SETVI); assay: Post-emergence herbicidal action against SETVI; conditions: dosage 320 g/ha
Outline: as §3

[7] = system: Alopecurus myosuroides (ALOMY); assay: Post-emergence herbicidal action against ALOMY; conditions: visual rating about 3 weeks after treatment vs untreated controls (100% = plants have died, 0% = like control plants)
Outline: as §3

[8] = system: Verconica persica (VERPE); assay: Pre-emergence herbicidal action against VERPE
Outline: as §2

[9] = system: Echinochloa crus-galli (ECHCG); assay: Pre-emergence herbicidal action against ECHCG
Outline: as §2

[10] = system: Amaranthus retroflexus (AMARE); assay: Pre-emergence herbicidal action against AMARE; conditions: visual scoring after about 3 weeks vs untreated controls
Outline: as §2

[11] = system: Verconica persica (VERPE); assay: Post-emergence herbicidal action against VERPE
Outline: as §3

[12] = system: Pharbitis purpurea (PHBPU); assay: Post-emergence herbicidal action against PHBPU
Outline: as §3

[13] = system: Avena fatua (AVEFA); assay: Pre-emergence herbicidal action against AVEFA; conditions: visual scoring after about 3 weeks vs untreated controls
Outline: as §2

[14] = system: Avena fatua (AVEFA); assay: Post-emergence herbicidal action against AVEFA; conditions: 320 g/ha, visual rating about 3 weeks after treatment
Outline: as §3

[15] = system: Abutilon theophrasti (ABUTH); assay: Post-emergence herbicidal action against ABUTH; conditions: visual rating about 3 weeks after treatment vs untreated controls (100% = plants have died, 0% = like control plants)
Outline: as §3

[16] = system: Lolium rigidum (LOLRI); assay: Pre-emergence herbicidal action against LOLRI; conditions: dosage 320 g/ha
Outline: as §2

[17] = system: Polygonum convolvulus (POLCO); assay: Pre-emergence herbicidal action against POLCO
Outline: as §2

[18] = system: Echinochloa crus-galli (ECHCG); assay: Post-emergence herbicidal action against ECHCG
Outline: as §3

[19] = system: Matricaria inodora (MATIN); assay: Pre-emergence herbicidal action against MATIN
Outline: as §2

[20] = system: Viola tricolor (VIOTR); assay: Pre-emergence herbicidal action against VIOTR
Outline: as §2

[21] = system: Viola tricolor (VIOTR); assay: Post-emergence herbicidal action against VIOTR; conditions: 320 g/ha
Outline: as §3

[22] = system: Pharbitis purpurea (PHBPU); assay: Pre-emergence herbicidal action against PHBPU; conditions: dosage 320 g/ha
Outline: as §2

[23] = system: Alopecurus myosuroides (ALOMY); assay: Pre-emergence herbicidal action against ALOMY; conditions: scored visually after about 3 weeks, 100% = plants have died
Outline: as §2

[24] = system: Lolium rigidum (LOLRI); assay: Post-emergence herbicidal action against LOLRI; conditions: dosage 320 g/ha
Outline: as §3

[25] = system: Zea mays (ZEAMX); conditions: pre-emergence, 80 g/ha, crop plant compatibility, in comparison to untreated controls
Outline: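 Scoring: visual, % of untreated control, about 3 weeks after a pre-emergence application to the soil surface. Application used WP or EC formulations diluted in water with 0.5% additive at 600 l/ha; dosage levels are marked by suffixes a, b and c.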

[26] = system: Matricaria inodora (MATIN); assay: Post-emergence herbicidal action against MATIN; conditions: dosage 320 g/ha
Outline: as §3

[27] = system: Polygonum convolvulus (POLCO); assay: Post-emergence herbicidal action against POLCO
Outline: as §3

[28] = 80 g/ha, visual rating about 3 weeks after treatment vs untreated controls (100% = plants have died, 0% = like control plants)
[29] = 320 g/ha, visual rating about 3 weeks after treatment

SMILES | Post-emergence action against ORYSA in % [1] [%] | Pre-emergence action against ABUTH [3] [%] | Post-emergence action against AMARE in % [4, 28] [%] | Post-emergence action against AMARE in % [4, 29] [%] | Pre-emergence action against SETVI in % [5] [%] | Post-emergence action against SETVI in % [6] [%] | Post-emergence action against ALOMY in % ([7]; 80 g/ha) [%] | Post-emergence action against ALOMY in % ([7]; 320 g/ha) [%] | Pre-emergence action against VERPE in % ([8]; dosage 320 g/ha) [%] | Pre-emergence action against ECHCG in % ([9]; dosage 320 g/ha) [%] | Pre-emergence action against AMARE in % ([10]; 320 g/ha) [%] | Post-emergence action against VERPE in % ([11]; 320 g/ha, VERPE) [%] | Post-emergence action against VERPE in % ([11]; dosage 80 g/ha) [%] | Post-emergence action against PHBPU in % ([12]; dosage 80 g/ha) [%] | Post-emergence action against PHBPU in % ([12]; dosage 320 g/ha) [%] | Pre-emergence action against AVEFA in % ([13]; 320 g/ha) [%] | Post-emergence action against AVEFA in % [14] [%] | Post-emergence action against ABUTH in % ([15]; 80 g/ha) [%] | Post-emergence action against ABUTH in % ([15]; 320 g/ha) [%] | Pre-emergence action against LOLRI in % [16] [%] | further results
CCOC(=O)COc1nn(-c2nc(F)ccc2F)c(-c2ccc(F)nc2)c1Br [Example I-330] | 10 | 100 | 80 | 80 | 100 | 80 | 80 | 90 | 90 | 100 | 100 | 80 | 80 | 80 | 90 | 90 | 80 | 80 | 80 | 90 | Post-emergence action against ZEAMX in % [2]: 10%; Pre-emergence action against AVEFA in % ([13]; 80 g/ha): 80%; Pre-emergence action against POLCO in % ([17]; dosage 320 g/ha): 90%; Post-emergence action against ECHCG in % ([18]; dosage 80 g/ha): 80%; Post-emergence action against ECHCG in % ([18]; dosage 320 g/ha): 90%; Pre-emergence action against MATIN in % ([19]; dosage 80 g/ha): 80%; Pre-emergence action against MATIN in % ([19]; dosage 320 g/ha): 90%; Pre-emergence action against VIOTR in % ([20]; 320 g/ha, Viola tricolor): 100%; Pre-emergence action against VIOTR in % ([20]; dosage 80 g/ha): 90%; Post-emergence action against VIOTR in % [21]: 80%; Pre-emergence action against PHBPU in % [22]: 90%; Pre-emergence action against ALOMY ([23]; 320 g/ha): 100%; Post-emergence action against LOLRI in % [24]: 90%; Pre-emergence action against ZEAMX in % [25]: 20%
COC(=O)CCOC(=O)COc1nn(-c2ccccn2)c(-c2ccc(F)nc2)c1Cl [Example I-88] | 0 | 80 | 80 | 80 | 100 | 80 | 80 | 90 | 90 | 100 | 100 | 80 | 80 | 80 | 80 | 90 | 90 | 80 | 80 | 100 | Post-emergence action against MATIN in % [26]: 80%; Pre-emergence action against VERPE in % ([8]; dosage 80 g/ha): 80%; Pre-emergence action against ECHCG in % ([9]; dosage 80 g/ha): 90%; Pre-emergence action against AMARE in % ([10]; 80 g/ha): 80%; Post-emergence action against POLCO in % ([27]; dosage 80 g/ha): 80%; Post-emergence action against POLCO in % ([27]; dosage 320 g/ha): 80%; Pre-emergence action against POLCO in % ([17]; dosage 80 g/ha): 80%; Pre-emergence action against POLCO in % ([17]; dosage 320 g/ha): 90%; Post-emergence action against ECHCG in % ([18]; dosage 80 g/ha): 80%; Post-emergence action against ECHCG in % ([18]; dosage 320 g/ha): 90%; Pre-emergence action against MATIN in % ([19]; dosage 320 g/ha): 90%; Pre-emergence action against VIOTR in % ([20]; 320 g/ha, Viola tricolor): 90%; Pre-emergence action against PHBPU in % [22]: 80%; Pre-emergence action against ALOMY ([23]; 80 g/ha): 80%; Pre-emergence action against ALOMY ([23]; 320 g/ha): 100%; Post-emergence action against LOLRI in % [24]: 80%; Pre-emergence action against ZEAMX in % [25]: 20%

Source: patent US20240041042A1, “1-(PYRIDYL)-5-AZINYLPYRAZOLE DERIVATIVES, AND THEIR USE FOR CONTROL OF UNDESIRED PLANT GROWTH” (Bayer Aktiengesellschaft, priority 2020, published 2024)
